Consider four molecules from patent US20200291079A1, “ENGINEERING STRUCTURALLY DEFINED NON-SACCHARIDE GLYCOSAMINOGLYCAN MIMETICS VIA A POLYPROLINE SCAFFOLD” (AGENCY FOR SCIENCE, TECHNOLOGY AND RESEARCH, priority 2015, published 2020).

Entries after “also recorded” stand apart in the source; their conditions may differ. Square brackets hold non-standard residues; d marks the D form. Primed or numbered codes have the meaning given here. Ends that are not written are not given here. * marks the point of attachment. PE = 4-azidoproline (Pz) joined by click reaction (1,2,3-triazole) to NS; Biotin = O=C1N[C@H]2[C@H](CS[C@H]2CCCCC(=O)*)N1; PEG12′ = not defined here

The subject of assay [1] is B16F10 murine melanoma cells bound to P-selectin-coated surfaces. Briefly: Adhesion of calcein-labeled tumor cells to immobilized P-selectin. It counts as cell-based. Particulars: B16F10 cells on P-selectin-coated surfaces.
Text: As such, it was examined if the strong binding affinity of (PE)12-NS toward P-selectin could translate into inhibition of P-selectin-mediated adhesion of tumor cells. To do so, recombinant P-selectin chimera protein with a Fc region was immobilized on Protein A-coated surfaces. The adhesion of calcein-labeled B16F10 murine melanoma cells to these surfaces in the presence of heparin or (PE)12-NS was then visualized (FIG. 16A) and quantified by fluorescence microplate reader (FIG. 16B).
A further assay relates to Factor Xa. Briefly: BIOPHEN Heparin Anti-Xa assay in the presence of anti-thrombin. In kind it is biochemical. The conditions noted are these: at concentrations as high as 300 ug/ml, anti-thrombin present. An excerpt: (§1) One common drawback hampering the clinical application of negatively charged glycomimetics is the potentially hazardous tendency to activate anti-thrombin, which in turn severely impairs the ability of blood coagulation factors (e.g. Factor Xa and IIa) in the final common pathway to orchestrate blood coagulation. To verify the safety and clinical potential of the engineered non-saccharide glycomimetics of tunable spatial conformation, the effect of (PE)12-NS and heparin on the activity of blood coagulation factors, Factor Xa and IIa in the presence of anti-thrombin, was assessed. This assessment was performed using BIOPHEN Heparin Anti-Xa and Anti-IIa assays (Aniara) where the inhibitory effect of anti-thrombin on Factor Xa and IIa was determined by the ability of the factors to catalyze the hydrolysis of factor-specific chromogenic substrates. […] The use of spatial conformation to present key chemical motifs toward selectins is therefore specific and independent of other proteins that could lead to undesirable consequences if concomitant enhanced binding were to be seen.

The target of assay [2] is T1, P-selectin (Homo sapiens, UniProt P16109).
T1 sequence (P16109 42-830): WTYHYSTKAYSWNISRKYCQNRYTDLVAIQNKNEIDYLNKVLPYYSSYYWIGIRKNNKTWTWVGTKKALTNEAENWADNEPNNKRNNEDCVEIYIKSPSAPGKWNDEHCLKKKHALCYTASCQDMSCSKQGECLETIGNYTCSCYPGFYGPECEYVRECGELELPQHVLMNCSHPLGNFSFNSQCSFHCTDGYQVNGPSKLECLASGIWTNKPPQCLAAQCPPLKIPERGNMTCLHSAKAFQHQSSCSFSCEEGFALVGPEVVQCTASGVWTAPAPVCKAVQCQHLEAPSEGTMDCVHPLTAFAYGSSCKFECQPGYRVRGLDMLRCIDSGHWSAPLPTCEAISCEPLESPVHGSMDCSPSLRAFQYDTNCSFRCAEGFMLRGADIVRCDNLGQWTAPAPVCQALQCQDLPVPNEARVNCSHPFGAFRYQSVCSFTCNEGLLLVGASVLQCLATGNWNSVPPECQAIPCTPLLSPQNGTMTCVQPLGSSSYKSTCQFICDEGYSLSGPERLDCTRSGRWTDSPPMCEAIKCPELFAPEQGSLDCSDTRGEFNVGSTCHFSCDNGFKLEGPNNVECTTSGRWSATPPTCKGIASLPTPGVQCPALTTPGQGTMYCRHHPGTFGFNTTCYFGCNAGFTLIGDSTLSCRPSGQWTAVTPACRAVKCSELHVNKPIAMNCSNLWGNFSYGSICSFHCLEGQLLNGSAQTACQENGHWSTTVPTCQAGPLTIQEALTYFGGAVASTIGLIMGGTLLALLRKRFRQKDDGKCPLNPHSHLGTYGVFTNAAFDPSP
Briefly: SPR binding to P-selectin. The conditions noted are these: distributed vs single facial conformation. The protocol:
SPR measurements were performed using a Biacore T100 system (GE Healthcare). The CM5 sensor chip was primed with HBS-EP+ buffer (10 mM HEPES pH 7.4, 150 mM NaCl, 3.4 mM EDTA, 0.005% P20, GE Healthcare) and was activated using the standard amine-coupling protocol (1:1 mixture of 0.4 M EDC and 0.1M NHS). 0.008 mg/ml of streptavidin solution in 10 mM sodium acetate buffer (Acetate 5.0, GE Healthcare) was conjugated and remaining activated groups were quenched with 1 M ethanolamine solution (pH 8.5). The final amount of streptavidin covalently immobilized on the surface was typically 700 RU. Flow cell 1 (or 3) was used as a reference to subtract nonspecific binding, drift, and the bulk refractive index, while flow cell 2 (or 4) was further immobilized with GAG mimetic agents or natural polysaccharides. […] Immobilized amount is normalized by a molecular weight. For a given affinity measurement, varying amount of protein solutions were successively injected into the flow cells for 240 seconds of contact time and 800 seconds of dissociation time using a flow rate of 50 μL/min at 25° C. Flow cell was regenerated using 2.5 M MgCl2 at 30 μL/min. Association (ka) and dissociation (kd) rate constants were calculated with a 1:1 binding model using Biacore evaluation software, and KD values were calculated from the ratio of kd to ka. […]
In general terms: SPR reads the build-up and loss of mass on a sensor chip optically.

The test system of a further assay is PC12 cells. Briefly: Neurite outgrowth assay (GDNF-mediated neuritogenesis). The conditions noted are these: 72 h; for effect on neuritogenesis: added to culture media, 20 μM, untreated cells.
Assay [3] addresses GFRα1 (Homo sapiens, UniProt P56159). Here is the method: (§2) SPR measurements were performed using a Biacore T100 system (GE Healthcare). The CM5 sensor chip was primed with HBS-EP+ buffer (10 mM HEPES pH 7.4, 150 mM NaCl, 3.4 mM EDTA, 0.005% P20, GE Healthcare) and was activated using the standard amine-coupling protocol (1:1 mixture of 0.4 M EDC and 0.1M NHS). 0.008 mg/ml of streptavidin solution in 10 mM sodium acetate buffer (Acetate 5.0, GE Healthcare) was conjugated and remaining activated groups were quenched with 1 M ethanolamine solution (pH 8.5). The final amount of streptavidin covalently immobilized on the surface was typically 700 RU. Flow cell 1 (or 3) was used as a reference to subtract nonspecific binding, drift, and the bulk refractive index, while flow cell 2 (or 4) was further immobilized with GAG mimetic agents or natural polysaccharides. […] Immobilized amount is normalized by a molecular weight. For a given affinity measurement, varying amount of protein solutions were successively injected into the flow cells for 240 seconds of contact time and 800 seconds of dissociation time using a flow rate of 50 μL/min at 25° C. Flow cell was regenerated using 2.5 M MgCl2 at 30 μL/min. Association (ka) and dissociation (kd) rate constants were calculated with a 1:1 binding model using Biacore evaluation software, and KD values were calculated from the ratio of kd to ka. Kinetic parameters were obtained by fitting curves to a 1:1 Langmuir model with baseline correction.
(§3) With the non-saccharide glycosaminoglycan mimetics in hand, SPR was employed to facilitate quantitative, real-time kinetic analysis of non-saccharide glycosaminoglycan mimetic binding to GDNF and GFRα1.

For assay [4], the target named is GDNF (Homo sapiens, UniProt P39905). The protocol: as §2, §3
Another assay deals with Factor IIa. Briefly: BIOPHEN Heparin Anti-IIa assay in the presence of anti-thrombin. Particulars: at concentrations as high as 300 ug/ml, anti-thrombin present. It counts as biochemical.
Text: as §1

Assay [5] deals with T2, P-selectin.
T2 chain: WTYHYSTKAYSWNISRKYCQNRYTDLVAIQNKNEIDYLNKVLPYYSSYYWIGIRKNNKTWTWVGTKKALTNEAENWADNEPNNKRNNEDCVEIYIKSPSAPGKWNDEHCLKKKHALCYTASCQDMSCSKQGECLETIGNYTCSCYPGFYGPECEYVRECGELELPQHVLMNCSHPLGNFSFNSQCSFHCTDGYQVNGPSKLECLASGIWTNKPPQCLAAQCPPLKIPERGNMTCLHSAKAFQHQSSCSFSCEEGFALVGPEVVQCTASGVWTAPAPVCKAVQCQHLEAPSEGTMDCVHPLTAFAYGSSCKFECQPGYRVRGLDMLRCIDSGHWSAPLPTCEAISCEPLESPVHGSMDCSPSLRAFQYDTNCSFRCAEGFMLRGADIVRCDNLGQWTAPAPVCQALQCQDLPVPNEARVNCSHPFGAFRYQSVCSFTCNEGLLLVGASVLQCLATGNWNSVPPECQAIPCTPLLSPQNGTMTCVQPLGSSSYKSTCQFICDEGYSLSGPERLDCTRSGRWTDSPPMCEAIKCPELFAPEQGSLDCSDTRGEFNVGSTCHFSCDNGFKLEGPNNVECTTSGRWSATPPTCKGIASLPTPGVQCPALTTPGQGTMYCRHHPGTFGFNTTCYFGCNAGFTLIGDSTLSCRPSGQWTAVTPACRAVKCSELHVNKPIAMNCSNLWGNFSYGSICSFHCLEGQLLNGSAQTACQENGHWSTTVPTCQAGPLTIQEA
Briefly: SPR (Biacore T100), biotinylated mimetic on streptavidin chip, selectin injected.

Assay [6] deals with GFRα1. Briefly: SPR (Biacore T100), biotinylated mimetic on streptavidin CM5 chip, protein injected, 1:1 model.
The target of assay [7] is T3, GDNF.
T3 chain: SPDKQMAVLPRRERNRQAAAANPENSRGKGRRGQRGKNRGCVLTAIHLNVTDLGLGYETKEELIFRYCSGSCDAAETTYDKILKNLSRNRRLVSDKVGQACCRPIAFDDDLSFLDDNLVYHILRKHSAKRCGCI
Described as above.

Assay [8] has as its target recombinant P-selectin chimera protein with a Fc region. Briefly: cell-based or functional assay.
[9] abbreviates: GFRα1, SPR, 1:1 binding model, 25° C.
The mark [10] stands for this setting: SPR sensorgrams, 0.2-1.0 nM protein.
The mark [11] stands for this setting: GDNF, SPR, 1:1 binding model, 25° C.

GDNF (Homo sapiens, UniProt P39905), sequence (P39905 76-211, species assumed): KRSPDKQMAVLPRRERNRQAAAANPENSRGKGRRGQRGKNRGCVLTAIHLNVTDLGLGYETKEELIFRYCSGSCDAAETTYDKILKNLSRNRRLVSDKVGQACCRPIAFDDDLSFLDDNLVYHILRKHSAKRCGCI
GFRα1 (Homo sapiens, UniProt P56159), sequence (P56159 25-429, species assumed): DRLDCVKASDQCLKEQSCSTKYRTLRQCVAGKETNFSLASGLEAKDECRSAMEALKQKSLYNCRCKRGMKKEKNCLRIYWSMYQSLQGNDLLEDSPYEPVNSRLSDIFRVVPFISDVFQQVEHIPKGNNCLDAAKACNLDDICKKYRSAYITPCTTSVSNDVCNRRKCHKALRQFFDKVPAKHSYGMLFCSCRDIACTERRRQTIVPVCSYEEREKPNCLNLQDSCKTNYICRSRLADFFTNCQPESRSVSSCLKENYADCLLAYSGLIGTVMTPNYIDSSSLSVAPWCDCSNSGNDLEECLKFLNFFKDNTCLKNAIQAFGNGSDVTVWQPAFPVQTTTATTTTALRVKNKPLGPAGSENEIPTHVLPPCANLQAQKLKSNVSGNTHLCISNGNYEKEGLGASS
Description for PC12 cells: PC12 cells were maintained in T75 tissue culture flasks in RPMI 1640 medium (ATCC® 30-2001) supplemented with 10% heat-inactivated horse serum (HI-HS, Gibco 26050-088), 5% fetal bovine serum (FBS, Gibco 26170-043) and 1% penicillin/streptomycin (Gibco 15140-122). Stock cultures from liquid nitrogen were grown at 37° C. with 5% CO2 in a humidified chamber for a minimum of 72 hr before experiments. Cells were seeded on 13 mm round glass coverslips (Paul Marienfeld 0111530). The coverslips were pretreated with 65% nitric acid for three days, washed with distilled water, 70% ethanol and 100% ethanol thrice each for 30 minutes with gentle rocking and then dried in a cell culture hood overnight under UV. For cell attachment, the treated coverslips were coated with laminin (25 μg/mL in PBS; Sigma L2020) at 37° C. for 1 hr, washed thrice with PBS, and then placed at the bottom of a 24-well plate for cell seeding. For all experiments, cells were cultured in RPMI 1640 differentiation media containing 1% HI-HS.
PC12 cells were first harvested and incubated in differentiation media or differentiation media supplemented with 30 μM of DPPE-(PE)12-NS for 2 h. After incubation, the cells were centrifuged and rinsed twice with fresh differentiation medium and then seeded onto laminin-coated coverslips at a density of 100 cells/mm^2. After allowing the cells to attach for 1 hr at 37° C., the medium was replaced with fresh differentiation medium supplemented with 200 ng/mL GDNF and 1 μg/mL GFRα1. As additional controls, (PE)12-NS or NS were further added to the supplemented medium to a final concentration of 20 μM for untreated cells. After 72 h, the cells were fixed with 4% paraformaldehyde solution (Tokyo Chemical Industry 30525-89-4 in PBS) for 15 minutes at room temperature and then rinsed with PBS. Bright-field images were taken using an Olympus IX71 Inverted Microscope at 20× magnification under phase contrast. For each condition, 400-500 randomly selected single cells were counted. The percentage of neurite-bearing cells was determined by counting the number of cells with neurites longer than the cell body. Experiments were repeated three times and done in duplicate each time.

In the case of `COC(=O)[C@@H]1C[C@@H](n2cc(CC(COS(=O)(=O)O)OS(=O)(=O)O)nn2)CN1C(=O)[C@@H]1C[C@@H](n2cc(CC(COS(=O)(=O)O)OS(=O)(=O)O)nn2)CN1C(=O)[C@@H]1C[C@@H](n2cc(CC(COS(=O)(=O)O)OS(=O)(=O)O)nn2)CN1C(=O)[C@@H]1C[C@@H](n2cc(CC(COS(=O)(=O)O)OS(=O)(=O)O)nn2)CN1C(=O)[C@@H]1C[C@@H](n2cc(CC(COS(=O)(=O)O)OS(=O)(=O)O)nn2)CN1C(=O)[C@@H]1C[C@@H](n2cc(CC(COS(=O)(=O)O)OS(=O)(=O)O)nn2)CN1C(=O)[C@@H]1C[C@@H](n2cc(CC(COS(=O)(=O)O)OS(=O)(=O)O)nn2)CN1C(=O)[C@@H]1C[C@@H](n2cc(CC(COS(=O)(=O)O)OS(=O)(=O)O)nn2)CN1C(=O)[C@@H]1C[C@@H](n2cc(CC(COS(=O)(=O)O)OS(=O)(=O)O)nn2)CN1C(=O)[C@@H]1C[C@@H](n2cc(CC(COS(=O)(=O)O)OS(=O)(=O)O)nn2)CN1C(=O)[C@@H]1C[C@@H](n2cc(CC(COS(=O)(=O)O)OS(=O)(=O)O)nn2)CN1C(=O)[C@@H]1C[C@@H](n2cc(CC(COS(=O)(=O)O)OS(=O)(=O)O)nn2)CN1C(=O)CCOCCOCCOCCOCCOCCOCCOCCOCCOCCOCCOCCOCCNC(=O)CCCC[C@@H]1SC[C@@H]2NC(=O)N[C@@H]21` (stereo partly drawn) [(PE)12-NS], in assay [1], the “concentration from which near-complete inhibition of adhesion is achieved” value was ≥ 0.6 µg/mL. The “activity of Factor Xa” value with Factor Xa was “remained unaffected”. The “binding affinity to P-selectin (comparison in words)” value on P-selectin [2] is “stronger binding affinity”. Also, the “effect on neuritogenesis” value is given as “Complete inhibition” in the assay on PC12 cells (GDNF and GFRα1); “completely inhibited neuritogenesis” with PC12 cells (GDNF and GFRα1, listed as biotin-(PE)12-NS). The figures for the kd at GFRα1 [3] (setting [9]) and on GDNF [4] (setting [11]) were 4.9 (± 1.7) × 10^−2 S^−1 and 2.12 (± 0.07) × 10^−3 S^−1, respectively. Besides, the figures for the kα at GFRα1 [3] (setting [9]) and at GDNF [4] (setting [11]) were 4.26 (± 0.90) × 10^5 M^−1S^−1 and 6.42 (± 0.28) × 10^5 M^−1S^−1, respectively. Further, the “binding affinity to GFRα1 (comparison in words)” value on GFRα1 [3] (setting [10]) is “far higher binding affinity”. Besides, the “binding affinity to GDNF (comparison in words)” value at GDNF [4] (setting [10]) is “far higher binding affinity”. Also, the “activity of Factor IIa” value with Factor IIa was “remained unaffected”.

For the molecule DPPE-(PE)12-NS (PPPPPPPPPPPP), the “percentage of neurite-bearing cells” value in the assay with PC12 cells (cells pre-incubated with 30 μM for 2 h, 200 ng/mL GDNF and 1 μg/mL GFRα1, control 16%) was found to be 45%. For the same molecule, the “neurite length” value in the assay with PC12 cells (cells pre-incubated with 30 μM for 2 h, GDNF and GFRα1) is listed as “marked increase”.

On to pent-4-yne-1,2-diyl bis(sulfate) [NS], for which the “effect on neuritogenesis” value in the assay with PC12 cells (GDNF and GFRα1) is given as “No significant effect; also recorded: no discernable effect”.

B1: Biotin-(PE)12-NS (peptide)
peptide: {Biotin-PEG12′}-[PE][PE][PE][PE][PE][PE][PE][PE][PE][PE][PE][PE]
modifications: also: CO2CH3 methyl ester seen in NMR
notes: Non-saccharide glycosaminoglycan mimetic on a polyproline type II helix, with NS on all three faces; The biotinylated form was immobilised on streptavidin for SPR; also called distributed design; distributed conformation
The Kd is a measure of binding affinity in units of concentration. A lower Kd goes with higher affinity. A word on the koff: it is the rate constant with which the complex falls apart. Read a low koff as a long-lived complex. A word on the kon: it is the rate constant with which the complex forms. In turn, B1 showed a Kd with P-selectin [5] of 6 nM. In the assay with GFRα1 [6], the Kd came to 116 nM, the koff came out at 0.049 s⁻¹ and the kon is 426000 M⁻¹ s⁻¹. Also, in the assay with GDNF [7], the Kd is 3.3 nM, the koff is 0.00212 s⁻¹ and the kon stood at 642000 M⁻¹ s⁻¹. In assay [8], the IC50 of inhibition of adhesion of calcein-labeled B16F10 murine melanoma cells to immobilized P-selectin was 0.18 µg/mL and the near-complete inhibition of adhesion of B16F10 cells to immobilized P-selectin was > 0.6 µg/mL.
